Earlier results on 1 molecule are cited in patent US20050250674A1, “Nutritional and food supplement preparation comprising creatine and orotic acid complexes, derivatives and analogs” (priority 2004, published 2005).

The conditions of this series: oral ingestion of about 20 to 30 g per day, divided between several doses, for several days.

In the case of `CN(CC(=O)O)C(=N)N` [creatine, methyl guanidine-acetic acid], the “increase in human skeletal muscle total creatine content” value is “greater than 20%”.
